Measurements as given in US9234000B2, “Benzylamine derivatives as inhibitors of plasma kallikrein” (KalVista Pharmaceuticals Limited, priority 2011, dated 2016).
≈ marks a conversion by molar mass, not a printed value. Like-named read-outs stand apart in the source and are kept apart here.

Key:
[1] = Ocular and systemic pharmacokinetics following a single IVT dose; type: in vivo, pigmented (Dutch-belted) rabbits; settings: rabbit
Experimental: A pharmacokinetic study of Example 3 was performed to assess the ocular and systemic pharmacokinetics following a single IVT dose in pigmented (Dutch-belted) rabbits. […] Serial blood samples were collected in surviving rabbits.
Ocular tissue concentration data are presented in FIG. 2, in which the solid line for each ocular tissue concentration is the average of the left and right eye of each rabbit.

Factor XIIa = Factor XIIa (Homo sapiens (Human), UniProt P00748); experiment: Determination of enzyme selectivity: Factor XIIa; type: biochemical; settings: fluorogenic substrate at Km concentration
Experimental: (§1) Determination of Enzyme Selectivity
Human serine protease enzymes plasmin, thrombin, trypsin, Factor Xa and Factor XIIa were assayed for enzymatic activity using an appropriate fluorogenic substrate. Protease activity was measured by monitoring the accumulation of liberated fluorescence from the substrate over 5 minutes. The linear rate of fluorescence increase per minute was expressed as percentage (%) activity. The Km for the cleavage of each substrate was determined by standard transformation of the Michaelis-Menten equation.

physchem = settings: pH 7, aqueous buffer, kinetic from dmso stock
Experimental: Determination of the Kinetic Solubility in Phosphate Buffer
After shaking for approximately 30 seconds the reduction in light transmission of these samples, at 650 nm, was measured (Molecular Devices Spectromax UV/visible spectrophotometer). A second measurement was taken at approximately 30 seconds later.

Human KLK1 = Human KLK1 (Homo sapiens (Human), UniProt P06870); experiment: Determination of the IC50 for KLK1; type: biochemical; settings: Human KLK1, 37° C., substrate H-DVal-Leu-Arg-AFC
Method in brief: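 IC50 values reflect residual human KLK1 activity, read as initial rate from optical absorbance change at 410 nm. Incubations ran at 37° C with H-DVal-Leu-Arg-AFC as substrate across a compound concentration series.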

Human plasma kallikrein = Human plasma kallikrein (Homo sapiens (Human), UniProt P03952); experiment: Determination of the IC50 for plasma kallikrein; type: biochemical; settings: 37° C., read-out: IC50 (human PKal)
Method in brief: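 Human plasma kallikrein incubated at 37° C with fluorogenic substrate H-DPro-Phe-Arg-AFC and varying compound concentrations. Initial reaction rate followed by absorbance change at 410 nm to give residual activity and IC50.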

[2] = Determination of thermodynamic solubility in phosphate buffer; type: physicochemical; settings: pH 7.4, aqueous buffer, thermodynamic from solid, ammonium phosphate buffer pH7.4, 290 mOsm, 37° C., nominal 1 mg/mL, read-out: Solubility in PO4 buffer
Method in brief: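 Compound at nominal 1 mg/mL in ammonium phosphate buffer (pH7.4, 290 mOsm), shaken 1 h at 37° C., then centrifuged 15,000 g for 10 minutes at 37° C. Supernatant concentration measured by LC-MS/MS against a calibration line from a DMSO stock.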

plasmin = plasmin (Homo sapiens (Human), UniProt P00747); experiment: Determination of enzyme selectivity: plasmin; type: biochemical; settings: substrate at Km
Source text: as §1

Factor Xa = Factor Xa (Homo sapiens (Human), UniProt P00742); experiment: Determination of enzyme selectivity: Factor Xa; type: biochemical; settings: substrate at Km
Source text: as §1

CA-I stimulated RVP = experiment: Carbonic anhydrase I induced retinal vascular permeability model; type: in vivo, Sprague Dawley rats; settings: rat
Experimental: Carbonic Anhydrase I Induced Retinal Vascular Permeability Model
After 30 mins, a second intravitreal injection (5 μL) of PBS or CA-I (200 ng/eye) was given. After 15 minutes, 10% sodium fluorescein was infused and retinal vascular permeability (RVP) was measured by vitreous fluorophotometry 75 minutes following the initial IVT injections.

thrombin = thrombin (Homo sapiens (Human), UniProt P00734); experiment: Determination of enzyme selectivity: thrombin; type: biochemical; settings: substrate at Km
Source text: as §1

Sequence of Human KLK1 (P06870 25-262): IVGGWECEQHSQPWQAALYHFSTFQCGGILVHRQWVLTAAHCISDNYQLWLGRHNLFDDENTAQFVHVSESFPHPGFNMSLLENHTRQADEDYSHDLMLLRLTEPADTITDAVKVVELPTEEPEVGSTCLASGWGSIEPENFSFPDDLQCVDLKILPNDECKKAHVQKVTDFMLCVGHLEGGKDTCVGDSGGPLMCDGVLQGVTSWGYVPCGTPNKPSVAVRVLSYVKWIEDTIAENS
Sequence of Human plasma kallikrein (P03952 391-638): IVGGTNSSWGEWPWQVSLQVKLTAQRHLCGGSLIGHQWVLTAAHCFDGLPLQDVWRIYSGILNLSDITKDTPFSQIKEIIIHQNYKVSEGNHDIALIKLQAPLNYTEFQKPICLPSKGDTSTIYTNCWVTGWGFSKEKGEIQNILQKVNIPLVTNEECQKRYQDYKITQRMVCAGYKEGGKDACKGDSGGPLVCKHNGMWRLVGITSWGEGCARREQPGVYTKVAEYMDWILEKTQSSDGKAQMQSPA
Sequence of Human plasma kallikrein (P03952 20-390 partner): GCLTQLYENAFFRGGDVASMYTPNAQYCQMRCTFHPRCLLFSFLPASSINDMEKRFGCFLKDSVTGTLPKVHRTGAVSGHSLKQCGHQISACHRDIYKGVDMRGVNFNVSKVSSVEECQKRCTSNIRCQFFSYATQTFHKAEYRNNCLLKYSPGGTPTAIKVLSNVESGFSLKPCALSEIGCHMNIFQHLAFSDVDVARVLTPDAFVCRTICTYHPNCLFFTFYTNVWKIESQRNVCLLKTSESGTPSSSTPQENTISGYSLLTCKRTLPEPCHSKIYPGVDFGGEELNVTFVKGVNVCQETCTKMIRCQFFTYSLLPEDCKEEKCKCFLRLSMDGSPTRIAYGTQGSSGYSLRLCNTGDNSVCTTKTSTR
Sequence of Factor XIIa (P00748 373-615): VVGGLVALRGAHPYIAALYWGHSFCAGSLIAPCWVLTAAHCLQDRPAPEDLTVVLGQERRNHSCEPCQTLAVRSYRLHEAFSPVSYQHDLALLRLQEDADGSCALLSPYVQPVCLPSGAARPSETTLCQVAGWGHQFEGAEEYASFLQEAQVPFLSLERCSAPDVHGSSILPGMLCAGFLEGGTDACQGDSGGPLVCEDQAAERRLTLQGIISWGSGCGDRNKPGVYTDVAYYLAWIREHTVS
Sequence of Factor Xa (P00742 235-488): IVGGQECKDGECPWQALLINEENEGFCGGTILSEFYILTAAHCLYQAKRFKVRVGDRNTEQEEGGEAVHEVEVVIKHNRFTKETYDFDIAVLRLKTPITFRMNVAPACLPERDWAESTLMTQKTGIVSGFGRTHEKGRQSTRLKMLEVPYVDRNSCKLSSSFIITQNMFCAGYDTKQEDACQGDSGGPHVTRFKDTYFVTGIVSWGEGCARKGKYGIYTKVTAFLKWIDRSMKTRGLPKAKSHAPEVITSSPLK
Sequence of Factor Xa (P00742 41-179 partner): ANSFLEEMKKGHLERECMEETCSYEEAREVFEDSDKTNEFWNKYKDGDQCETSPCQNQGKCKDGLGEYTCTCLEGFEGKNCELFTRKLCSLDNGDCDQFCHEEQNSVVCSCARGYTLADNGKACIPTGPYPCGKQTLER
Sequence of plasmin (P00747 whole entry, looked up, change not shown): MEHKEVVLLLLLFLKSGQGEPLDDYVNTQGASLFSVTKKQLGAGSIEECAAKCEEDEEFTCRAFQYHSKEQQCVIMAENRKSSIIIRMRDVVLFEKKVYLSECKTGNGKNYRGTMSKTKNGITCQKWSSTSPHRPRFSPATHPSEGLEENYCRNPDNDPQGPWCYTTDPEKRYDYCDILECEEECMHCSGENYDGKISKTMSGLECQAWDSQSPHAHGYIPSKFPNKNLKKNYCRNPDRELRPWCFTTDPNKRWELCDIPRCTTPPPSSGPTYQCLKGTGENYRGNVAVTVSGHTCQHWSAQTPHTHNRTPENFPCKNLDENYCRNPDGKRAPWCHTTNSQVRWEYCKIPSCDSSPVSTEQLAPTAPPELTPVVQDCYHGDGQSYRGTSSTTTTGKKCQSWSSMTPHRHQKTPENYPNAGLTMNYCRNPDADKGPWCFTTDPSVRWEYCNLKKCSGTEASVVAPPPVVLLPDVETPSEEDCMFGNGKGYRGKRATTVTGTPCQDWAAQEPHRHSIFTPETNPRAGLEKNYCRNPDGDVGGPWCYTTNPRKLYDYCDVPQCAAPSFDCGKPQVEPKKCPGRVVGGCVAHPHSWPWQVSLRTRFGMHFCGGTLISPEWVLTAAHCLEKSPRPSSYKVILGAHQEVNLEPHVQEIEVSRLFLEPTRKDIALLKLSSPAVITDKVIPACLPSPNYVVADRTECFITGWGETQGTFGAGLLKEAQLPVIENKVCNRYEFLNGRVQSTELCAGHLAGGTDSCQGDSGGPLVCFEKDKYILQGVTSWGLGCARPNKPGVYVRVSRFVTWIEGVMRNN
Sequence of plasmin (P00747 whole entry partner, looked up): as the sequence (P00747 whole entry, looked up, change not shown) above

With `CCOc1ccc(C[C@@H](NC(=O)c2ccccc2)C(=O)N[C@@H](Cc2ccccc2)C(=O)NCc2ccc(CN)cc2)cc1` [Example 3, N—[(R)-1-[(S)-1-(4-Aminomethyl-benzylcarbamoyl)-2-phenyl-ethylcarbamoyl]-2-(4-ethoxy-phenyl)-ethyl]-benzamide] the “decline in ocular tissue concentrations” value ([1]; IVT 210 ng per eye, vitreous, retina/choroid, aqueous humour, over 7 days) was “minimal”, the “Plasma concentrations following IVT administration” value ([1]; single bilateral IVT 210 ng per eye, all time points) was “below 1 ng/mL” and the IC50 (Factor XIIa) was greater than 10 µM. The solubility (physchem) was 12 µM (≈ 6.94 µg/mL), the IC50 (Human KLK1; Table 12) was greater than 10 µM and the IC50 (Human plasma kallikrein; fluorogenic substrate H-DPro-Phe-Arg-AFC) was 0.022 µM. The solubility at 1 h [2] was 10 µg/mL (≈ 17.3 µM), the IC50 (plasmin) was 3.5 µM and the IC50 (Factor Xa) was greater than 10 µM. The “reduction of RVP stimulated by CA-I injection” value (CA-I stimulated RVP; intravitreal injection 1 μM (5 μL), CA-I 200 ng/eye, RVP measured at 75 minutes) was 53±21%, the “basal RVP” value (CA-I stimulated RVP; intravitreal injection of 1 μM alone (no CA-I), PBS alone 3.64±0.48, no effect) was 3.29±0.21 and the IC50 (thrombin) was greater than 40 µM.

In the case of `CCOc1ccc(C[C@@H](NC(=O)c2ccc(Cl)c(Cl)c2)C(=O)N[C@@H](Cc2ccccc2)C(=O)NCc2ccc(CN)cc2)cc1` [Example 93, N-[(R)-1-[(S)-1-(4-Aminomethyl-benzylcarbamoyl)-2-phenyl-ethylcarbamoyl]-2-(4-ethoxy-phenyl)-ethyl]-3,4-dichloro-benzamide], the IC50 (Factor XIIa) is reported as greater than 10 µM, the IC50 (Human KLK1; Table 13) is reported as greater than 10 µM and the IC50 (Human plasma kallikrein; substrate H-DPro-Phe-Arg-AFC) is reported as 0.175 µM. The solubility at 1 h [2] was 0.01 µg/mL (≈ 0.0154 µM).

`CCOc1ccc(C[C@@H](NC(=O)c2ccccn2)C(=O)N[C@@H](Cc2cccs2)C(=O)NCc2ccc(CN)cc2)cc1` [Example 157, Pyridine-2-carboxylic acid [(R)-1-[(S)-1-(4-aminomethyl-benzylcarbamoyl)-2-thiophen-2-yl-ethylcarbamoyl]-2-(4-ethoxy-phenyl)-ethyl]-amide] showed an IC50 (Factor XIIa) greater than 10 µM, an IC50 (Human KLK1; Table 13) greater than 10 µM and an IC50 (Human plasma kallikrein; substrate H-DPro-Phe-Arg-AFC) of 0.036 µM. It also gave a solubility at 1 h [2] of 4.77 µg/mL (≈ 8.14 µM).

`CCOc1ccc(C[C@@H](NC(=O)c2ccc(C)cc2)C(=O)N[C@@H](Cc2cccnc2)C(=O)NCc2ccc(CN)cc2)cc1` [Example 199, N—[(R)-1-[(S)-1-(4-Aminomethyl-benzylcarbamoyl)-2-pyridin-3-yl-ethylcarbamoyl]-2-(4-ethoxy-phenyl)-ethyl]-4-methyl-benzamide] showed an IC50 (Factor XIIa) greater than 10 µM, an IC50 (Human KLK1; Table 13) greater than 10 µM and an IC50 (Human plasma kallikrein; substrate H-DPro-Phe-Arg-AFC) of 0.01 µM. It also gave a solubility at 1 h [2] of 15.9 µg/mL (≈ 26.7 µM).

Compound `CCOc1ccc(C[C@@H](NC(=O)c2sccc2NC(C)=O)C(=O)N[C@@H](Cc2ccsc2)C(=O)NCc2ccc(CN)cc2)cc1` [Example 193, 3-Acetylamino-thiophene-2-carboxylic acid [(R)-1-[(S)-1-(4-aminomethyl-benzylcarbamoyl)-2-thiophen-3-yl-ethylcarbamoyl]-2-(4-ethoxy-phenyl)-ethyl]-amide] has an IC50 (Factor XIIa) greater than 10 µM, an IC50 (Human KLK1; Table 13) greater than 10 µM and an IC50 (Human plasma kallikrein; substrate H-DPro-Phe-Arg-AFC) of 0.025 µM.

Compound `CCOc1ccc(C[C@@H](NC(=O)C23CC4CC(CC(C4)C2)C3)C(=O)N[C@@H](Cc2ccccc2)C(=O)NCc2ccc(CN)cc2)cc1` [Example 91, Adamantane-1-carboxylic acid [(R)-1-[(S)-1-(4-aminomethyl-benzylcarbamoyl)-2-phenyl-ethylcarbamoyl]-2-(4-ethoxy-phenyl)-ethyl]-amide] has an IC50 (Factor XIIa) greater than 10 µM, an IC50 (Human KLK1; Table 13) greater than 10 µM and an IC50 (Human plasma kallikrein; substrate H-DPro-Phe-Arg-AFC) of 2.08 µM.

For `CCOc1ccc(C[C@@H](NC(=O)c2sccc2Cl)C(=O)N[C@H](C(=O)NCc2ccc(CN)cc2)[C@H](O)c2ccccc2)cc1` [Example 198, 3-Chloro-thiophene-2-carboxylic acid [(R)-1-[(1S,2R)-1-(4-aminomethyl-benzylcarbamoyl)-2-hydroxy-2-phenyl-ethylcarbamoyl]-2-(4-ethoxy-phenyl)-ethyl]-amide], the IC50 (Factor XIIa) was greater than 10 µM, the IC50 (Human KLK1; Table 13) was 9.1 µM and the IC50 (Human plasma kallikrein; substrate H-DPro-Phe-Arg-AFC) was 0.007 µM.

Compound `CCOc1ccc(C[C@@H](NC(=O)c2sccc2Cl)C(=O)N(C)[C@@H](Cc2ccccc2)C(=O)NCc2ccc(CN)cc2)cc1` [Example 196, 3-Chloro-thiophene-2-carboxylic acid [(R)-1-{[(S)-1-(4-aminomethyl-benzylcarbamoyl)-2-phenyl-ethyl]-methyl-carbamoyl}-2-(4-ethoxy-phenyl)-ethyl]-amide] has an IC50 (Factor XIIa) greater than 10 µM, an IC50 (Human KLK1; Table 13) of 9.9 µM and an IC50 (Human plasma kallikrein; substrate H-DPro-Phe-Arg-AFC) of 0.032 µM.

In the case of `CCOc1ccc(C[C@@H](NC(=O)c2sccc2NC(C)=O)C(=O)N[C@@H](Cc2csc3ccccc23)C(=O)NCc2ccc(CN)cc2)cc1` [Example 188, 3-Acetylamino-thiophene-2-carboxylic acid [(R)-1-[(S)-1-(4-aminomethyl-benzylcarbamoyl)-2-benzo[b]thiophen-3-yl-ethylcarbamoyl]-2-(4-ethoxy-phenyl)-ethyl]-amide], the IC50 (Factor XIIa) is reported as greater than 10 µM, the IC50 (Human KLK1; Table 13) is reported as greater than 10 µM and the IC50 (Human plasma kallikrein; substrate H-DPro-Phe-Arg-AFC) is reported as 0.036 µM.
